Assay results published in publication PMC5635289, “Differential Effects of Angelicin Analogues on NF-κB Activity and IL-8 Gene Expression in Cystic Fibrosis IB3-1 Cells” (Mediators of Inflammation, 2017).
pIC50: −log10 of the molar value.

Tests used:
NF-κB p50 = target: T1, NF-κB p50 (Homo sapiens, UniProt P19838); assay: EMSA, inhibition of NF-κB/DNA interactions; type: binding; conditions: NF-κB p50 and 32P-labeled NF-κB oligonucleotide, MIC = minimal inhibitory concentration, 12.5 μM was the lowest concentration used
T1 construct: This assay was performed using purified NF-κB p50; purchased Promega
T1 sequence (P19838 1-433 limits assumed): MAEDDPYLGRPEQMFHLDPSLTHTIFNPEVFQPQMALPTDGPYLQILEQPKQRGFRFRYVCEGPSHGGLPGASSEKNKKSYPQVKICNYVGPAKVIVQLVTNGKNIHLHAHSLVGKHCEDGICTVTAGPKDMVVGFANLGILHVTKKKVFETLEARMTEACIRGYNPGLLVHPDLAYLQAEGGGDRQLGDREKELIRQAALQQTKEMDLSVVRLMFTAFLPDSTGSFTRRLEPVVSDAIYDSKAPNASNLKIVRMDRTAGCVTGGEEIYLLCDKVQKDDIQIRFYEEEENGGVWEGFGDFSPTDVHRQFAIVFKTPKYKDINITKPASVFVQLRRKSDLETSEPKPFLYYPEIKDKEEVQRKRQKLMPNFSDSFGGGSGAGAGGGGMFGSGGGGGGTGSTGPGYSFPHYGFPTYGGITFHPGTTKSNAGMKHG
Protocol: Electrophoretic mobility shift assays were performed using double-stranded ^32P-labeled oligonucleotides as target DNA. Binding reactions were set up as previously described in binding buffer (10% glycerol, 0.05% NP-40, 10 mM Tris-HCl pH 7.5, 50 mM NaCl, 0.5 mM DTT, and 10 mM MgCl2), in the presence of 0.1 μl/20 μl of NF-κB p50 (50 gsu) (Promega, Madison, WI, USA) and 0.25 ng of labeled oligonucleotide, in a total volume of 20 μl. After 30 min binding at room temperature, samples were electrophoresed at constant voltage (200 V for 30 min) through a low ionic strength (0.25 TBE buffer) (1 TBE/40.089 M Tris-borate, 0.002 M EDTA) on 6% polyacrylamide gels until the tracking dye (bromophenol blue) reached the bottom of a 16 cm slab. Gels were dried and exposed for autoradiography with intensifying screens at […]. In these experiments, DNA/protein complexes migrate through the gel with slower efficiency. In studies on the inhibitors of protein/DNA interactions, addition of the reagents was as follows: (i) nuclear factors, (ii) active principles, (iii) binding buffer, and (iv) labeled oligonucleotides mimicking the binding sites for TF to be modulated. The nucleotide sequence of double-stranded target DNA utilized in these experiments was 5′-CGC TGG GGA CTT TCC ACG G-3′ (sense strand, NF-κB). The synthetic oligonucleotides utilized in this study were purchased from Sigma Genosys (Sigma Genosys, Cambs, UK). To calculate the effective concentrations, three different autoradiograms obtained from different time exposures were scanned and compared to control EMSA performed without addition of angelicin analogues (two independent experiments were performed).
The effects of TMA derivatives on NF-κB- (nuclear factor-kappaB-) mediated induction of proinflammatory genes was verified first in vitro by electrophoretic mobility shift assay (EMSA) with the aim to verify and quantify the possible inhibition of NF-κB/DNA interactions. This assay was performed using purified NF-κB p50 and ^32P-labeled target NF-κB double-stranded oligonucleotide mimicking the NF-κB consensus sequence present within the IL-8 gene promoter.

IB3-1 cells = assay: Cell proliferation assay on IB3-1 cells; type: cell-based; conditions: Homo sapiens, cell number/ml after 48 h of treatment
Protocol: Monolayers of 60% confluent IB3-1 cells were seeded in 24- or 12-well plates in LHC-8 medium in the presence of 5% FBS. After 24 h, TMA derivatives were added at serial dilutions and incubated for further 2-3 days. The effects of compounds (TMA derivatives) on the cell proliferation were analyzed as elsewhere described. A first analysis was performed with serial dilutions to obtain 50 μM, 200 μM, and 800 μM solutions. In order to determine IC50 values, the following concentrations were used 12.5, 25, 50, 100, 200, and 800 μM. In order to prepare the cells for counting, they were washed with PBS 1X and detached with trypsin/EDTA. Cells were suspended in physiological solution and counted with a Z2 Coulter Counter (Coulter Electronics, Hialeah, FL, USA). The cell number/ml was determined as IC50 after 2 days of culture, when untreated cells are in log phase of cell growth.
In order to obtain preliminary information on the biological properties of TMA derivatives, their effects on cell growth were examined on IB3-1 cell line, excellent biological model to study new potential anti-inflammatory molecules. The use of this cell line to study the expression of proinflammatory molecules under a variety of stimuli is well established. Monolayers of 60% confluent IB3-1 cells were seeded in 12-well plate in LHC-8 medium with 5% FBS. After 24 h, compounds were added at different concentrations and the cell number/ml was determined after further 48 h of culture.

IL-8 mRNA = assay: RT-qPCR quantification of IL-8 mRNA in TNF-α-induced IB3-1 cells; type: cell-based, human; conditions: for inhibition at 1 µM / inhibition at 10 µM: Homo sapiens, IB3-1, 24 h, TNF-α-induced IB3-1 cells, RT-qPCR, na = not active at the used concentrations; for inhibition at 1 µM: 1 μM compound; for inhibition at 10 µM: 10 μM compound
Protocol: Monolayers of 60% confluent IB3-1 cells were seeded in 6- or 12-well plates in LHC-8 medium in the presence of 5% FBS. After 24 h, pure derivatives were added, 5 h before stimulation with TNF-α 80 ng/ml (ORF Genetics, Kopavogur, Iceland), and incubated for a further 24 h. Total RNA was extracted using TRIzol Reagent (Sigma-Aldrich, St. Louis, MO) following the manufacturer's instructions. Reverse transcription (RT) was performed using Reverse Transcription System kit (Promega, Madison, WI): 1 μg of total RNA was reverse transcribed in the presence of 5 mM MgCl2, 1X reverse transcription buffer (10 mM Tris-HCl, 50 mM KCl, and 0.1% Triton X-100), 1 mM each dNTPs, 20 U recombinant Rnasin Ribonuclease Inhibitor, 15 U AMV Reverse Transcriptase, and 0.5 μg oligo(dT)15 primers in a total volume of 20 μl for 10 min at 70°C and 60 min at 42°C. The resulting cDNA was quantified by relative quantitative real-time PCR (real-time qPCR). For real-time qPCR, 1 μl of cDNA was used for each SYBR Green reaction to quantify the relative expression of IL-8. Each 25 μl of total reaction volume contained 1 μl of cDNA, 10 pmol of primers, 1 iQTM SYBR Green Supermix (Bio-Rad Laboratories Inc., Hercules, CA). Real-time PCRs were performed for a total of 40 cycles (denaturation, 95°C for 10 s; annealing, 68°C for 30 s for IL-8, 65°C for 30 s for IL-6; elongation, 72°C for 60 s) using an iCycler IQ5 (Bio-Rad Laboratories Inc., Hercules, CA). Primer sequences were as follows: IL-8 forward: 5′-GTGCAGTTTTGCCAAGGAGT-3′ and IL-8 reverse: 5′-TTATGAATTCTCAGCCCTCTTCAAAAACTTCTC-3′. The relative proportions of each amplified template were determined utilizing the threshold cycle (CT) value for each performed PCR. The DDCt method was used to compare gene expression data. Each sample was quantified in duplicate. Changes in mRNA expression level were calculated following normalization with the GAPDH calibrator gene (housekeeping gene) and expressed as fold change over untreated samples [24]. Duplicates of negative controls (no template cDNA) were also run with every experimental plate to assess specificity and indicate potential contamination.
With the aim to study the effective anti-inflammatory properties of these new psoralen derivatives, we decided to further characterize the TMA derivatives for their potential activities on the expression of IL-8 gene, known to be involved in the lung inflammatory process in CF. […] More specifically, we were first interested in identifying compounds with low antiproliferative activity, but effective in downmodulating inflammatory gene expression without achieving a full suppression of these genes. We therefore employed IB3-1 cystic fibrosis cells, incubated for 5 h with two concentrations (1 μM and 10 μM) of selected compounds, and then treated with TNF-α ([…]). In the IB3-1 cystic fibrosis cellular model, NF-κB-dependent genes, including the gene encoding for the proinflammatory protein IL-8, generally are activated following infection with P. aeruginosa or treatment with TNF-α or IL-1β [26, 28, 31]. This feature is very important in the pathophysiology of CF, since several clinical complications are caused by exacerbation of this inflammatory response. After 1 day of incubation, cellular RNA was isolated for RT-qPCR analysis. All the TMA analogues found to be active in inhibiting NF-κB/DNA interactions were analyzed for their effects on inhibition of TNF-α-induced accumulation of IL-8 mRNA.

Row | Compound | Inhibition of NF-κB/DNA complex (MIC) (NF-κB p50) | pIC50 (IB3-1 cells) | inhibition at 1 µM (IL-8 mRNA) | inhibition at 10 µM (IL-8 mRNA) | Inhibition of IL-8 expression (range given) (IL-8 mRNA; IB3-1 cells, low concentrations (1–10 μM), concentration not specified per value)
1 | CC(=O)OCc1oc2c(C)cc3c(C)cc(=O)oc3c2c1C [Compound 2] | > 100 µM | < 3.10 |  |  | 
2 | COCc1oc2c(C)cc3c(C)cc(=O)oc3c2c1C [Compound 3] | > 100 µM | < 3.10 |  |  | 
3 | Cc1cc(=O)oc2c1cc(C)c1occc12 [Compound 4] | 75 µM | < 3.10 |  |  | 
4 | Cc1cc(=O)oc2c1cc(C)c1occ(CBr)c12 [Compound 5] | 12.5 to 25 µM | 3.31 | 33% | 31% | 
5 | Cc1cc2ccc(=O)oc2c2c(C)coc12 [Compound 6] | > 100 µM | 3.34 |  |  | 
6 | Cc1cc2c(C(F)(F)F)cc(=O)oc2c2c(C)coc12 [Compound 7] | > 100 µM | < 3.10 |  |  | 
7 | Cc1cc2c(CO)cc(=O)oc2c2c(C)coc12 [Compound 8] | 25 to 50 µM | 3.40 | 51% | 52% | 52–83%
8 | COCc1cc(=O)oc2c1cc(C)c1occ(C)c12 [Compound 9] | 12.5 µM | < 3.10 |  |  | 
9 | Cc1cc2c(CBr)cc(=O)oc2c2c(C)coc12 [Compound 10] | < 12.5 µM | > 4.30 |  |  | 
10 | Cc1cc(=O)oc2c1ccc1occ(C)c12 [Compound 11] | > 100 µM | 3.74 |  |  | 
11 | Cc1cc(=O)oc2c1cc(Cl)c1occ(C)c12 [Compound 12] | 12.5 µM | < 3.10 | 0% |  | 
12 | Cc1cc(=O)oc2c1cc(Br)c1occ(C)c12 [Compound 13] | 12.5 µM | < 3.10 |  |  | 
13 | Cc1cc(=O)oc2c1cc(C)c1scc(C)c12 [Compound 14] | > 100 µM | < 3.10 |  |  | 
14 | COCc1cc(=O)oc2c1cc(C)c1scc(C)c12 [Compound 15] | > 100 µM | < 3.10 |  |  | 
15 | Cc1cc(=O)[nH]c2c1cc(C)c1occ(C)c12 [Compound 17] | > 100 µM | 3.71 |  |  | 
16 | Cc1cc(=O)[nH]c2c1cc(C)c1oc(CO)c(C)c12 [Compound 18] |  | < 3.10 |  |  | 
17 | Cc1cc(=O)n(C)c2c1cc(C)c1occ(C)c12 [Compound 19] |  | 3.88 |  |  | 
18 | Cc1cc(=O)oc2c3c(ccc12)OC(C)C3 (centres unmarked) [Compound 20] |  | 3.81 |  |  | 
19 | COC1Cc2c(ccc3c(C)cc(=O)oc23)O1 (centres unmarked) [Compound 21] |  | 3.17 |  |  | 
20 | Cc1cc(=O)oc2c3c(ccc12)OC(CBr)C3 (centres unmarked) [Compound 22] | > 100 µM | 3.74 |  |  | 
21 | Cc1oc2c(C)cc3c(C)cc(=O)oc3c2c1CO [Compound 23] |  | 3.35 | 3% | 11% | 
22 | Cc1cc2c(CO)cc(=O)oc2c2cc(CO)oc12 [Compound 24] | > 100 µM | 3.71 |  |  | 
23 | Cc1cc2c(o1)c(C)cc1c(CO)cc(=O)oc12 [Compound 25] | 25 to 50 µM | 3.26 |  |  | 
24 | Cc1cc(=O)oc2c1cc(C)c1[nH]nnc12 [Compound 31] | 25 µM | < 3.10 |  |  | 
25 | Cc1cc2c(CO)cc(=O)oc2cc1O [Compound 37] | 12.5 to 25 µM | < 3.10 |  |  | 
